Results taken from patent EP0050212A1, “5-Substituted-9-cyane-methylene-dithieno(3,4-b:4',3'-e) azepines, process for their preparation and pharmaceutical compositions containing them” (BASF Aktiengesellschaft, priority 1980, dated 1982).

Experiments:
Kaninchens = assay: Muscle-relaxant effect: tonic stretch reflex of the gastrocnemius; type: in vivo, Kaninchen; conditions: for ED50: Oryctolagus cuniculus, rabbit, intravenous, tonic stretch reflex impulse counts relative to pre-dose values, read-out: Muskelrelaxation ED50; for Muskelrelaxation R.W.: relative Wirksamkeit = ED50 Vergleichssubstanz / ED50 Beispiel, Clozapin = 1,0
From the text: 2. […] auf der Quantifizierung des tonischen Dehnungsreflexes am Gastocnemius des […] et al., Arch. Pharmacol. exp. Path. 266, 462, 1970). Das Kaninchen wird in einer speziellen Apparatur fixiert, die es erlaubt, die Pfote im Sprunggelenk in […] und reproduzierbarer Weise zu beugen. Durch die Beugung wird in der Wadenmuskulatur ein tonischer Dehnungsreflex ausgelöst. Die […] des Muskels während der Kontraktion wird registriert und die Einzelimpulse gezählt. Die Dehnung (Dauer 5 s) wird in Minutenabständen wiederholt. Nach Erreichen einer konstanten Impulszahl (Kontrollwert) wird die Testsubstanz intravenös appliziert. Die Impulszahlen nach Applikation werden auf die Vorwerte bezogen.

NMRI-Mäusen = assay: Sedative effect: inhibition of novelty-induced orientation hypermotility (photoelectric measurement); type: in vivo; conditions: for ED50: Mus musculus, 0.5 h, oral, female NMRI mice, measured 30 min after dosing for 30 min, dose giving 50 % decrease of orientation hypermotility, read-out: Sedation ED50; for Sedation R.W.: relative Wirksamkeit = ED50 Vergleichssubstanz / ED50 Beispiel, Clozapin = 1,0
Procedure: 4 bis 8 Gruppen von Jeweils 3 weiblichen NMRI-Mäusen erhalten die Substanzen oral appliziert. Die photoelektrische Bestimmung der durch eine neue Umgebung induzierten Orientierungshypermotilität erfolgt 30 min nach der Applikation der Substanzen für eine Dauer von 30 min. " Als ED50 wird die Dosis bestimmt, welche im Ver- gleich zu Placebo-behandelten Kontrolltieren eine Abnahme der Orientierungshypermotilität um 50 % bewirkt.

Ratten [1] = assay: Antimethamphetamine effect: suppression of methamphetamine-induced sniffing; type: in vivo; conditions: for ED50: ip, 0.5 h, rat, intraperitoneal 30 min before Methamphetamin . HCl 2,5 mg/kg i.v., absence of sniffing within 5 min, probit analysis, read-out: Methamphetaminantagonismus ED50; for Methamphetaminantagonismus R.W.: relative Wirksamkeit = ED50 Vergleichssubstanz / ED50 Beispiel, Clozapin = 1,0
Procedure: Antimethamphetamin-Wirkung
Methamphetamin . […] Die Prüfsubstanzen werden 30 min vor Methamphetamin intraperitoneal verabfolgt. Kriterium für einen Substanzeffekt ist das Ausbleiben der Schnüffelbewegungen innerhalb eines 5-minütigen Beobachtungszeitraumes nach Meth- amphetamin-Injektion. Als mittlere Hemmdosis (ED50) ' wird mittels Probitanalyse die Dosis ermittelt, die das Symptom bei der Hälfte der Tiere verhindert.

Ratten [2] = assay: Central anticholinergic effect: suppression of pilocarpine-induced scratching; type: in vivo; conditions: for ED50: ip, 0.5 h, rat, intraperitoneal 30 min before Pilocarpin . HCl 50 mg/kg i.v., absence of scratching within 2 min, probit analysis, read-out: Zentral-anticholinerge Wirkung ED50; for Zentral-anticholinerge Wirkung R.W.: relative Wirksamkeit = ED50 Vergleichssubstanz / ED50 Beispiel, Clozapin = 1,0
Procedure: 4. Zentral-anticholinerge Wirkung
Zur Prüfung auf zentrale anticholinerge Wirkung wird durch Pilocarpin eine cholinerge Stimulierung ausgelöst. Ratten zeigen nach rascher intravenöser Injektion von Pilocarpin . HC1 (50 mg/kg) alternierende Kratzbewegungen der Hinterpfoten; weitere zentral ausgelöste Symptome sind Kieferbewegungen und Tremor. ALs Zeichen peripherer übererregung können Speichelfluß und Chromodakryorrhoe beobachtet werden (Kreiskott, Arch. exp. Path. Pharmak. 247, 317, 1964). Die Prüfsubstanzen werden 30 min vor Pilocarpin intraperitoneal verabfolgt. Kriterium für einen Substanzeffekt ist das Ausbleiben des Kratzens innerhalb 2 min nach Pilocarpin-Injektion. Für dieses Symptom wird als mittlere Hemmdosis (ED50) mittels Probitanalyse nach Finney diejenige Dosis der Prüfsubstanz ermittelt, welche die Kratzabläufe bei der Hälfte der Tiere unterdrückt.

SMILES	ED50 (Kaninchens)	Muskelrelaxation R.W. (Kaninchens)	ED50 (NMRI-Mäusen)	Sedation R.W. (NMRI-Mäusen)	ED50 (Ratten [1])	Methamphetaminantagonismus R.W. (Ratten [1])	ED50 (Ratten [2])	Zentral-anticholinerge Wirkung R.W. (Ratten [2])
CN1CCN(C2=Nc3c(csc3Cl)C(=CC#N)c3cscc32)CC1 (mixture of isomers) [Beispiel 2, cis, trans-3-Chlor-9-cyanmethyl en-5-(4-methylpiperazin-1--yl)-dithieno[3.4-b:4'.3'-e]azepin]	0.08 mg/kg	0,56	9.6 mg/kg	0,49				
CCN1CCN(C2=Nc3cscc3C(=CC#N)c3cscc32)CC1 (mixture of isomers) [Beispiel 6, cis, trans-9-Cyanmethylen-5-(4-äthyl-piperazin-1-yl)-di-thieno[3.4-b:4'.3'-elazepin]	0.22 mg/kg	0,21	10.6 mg/kg	0,44	42 mg/kg	0,88		
CN1CCN(C2=Nc3cscc3/C(=C/C#N)c3cscc32)CC1 [1b cis]	0.22 mg/kg	0,21	5 mg/kg	0,94	5.5 mg/kg	6,72	0.6 mg/kg	5,2
CN1CCN(C2=Nc3cscc3/C(=C\C#N)c3cscc32)CC1 [1b trans]	> 1 mg/kg	<0,046	> 21.5 mg/kg	<0,22	77 mg/kg	0,48	13 mg/kg	0,24
CN1CCN(C2=Nc3cscc3C(=CC#N)c3cscc32)CC1 [Beispiel 1a, 9-Cyanmethylen-5-(4-methyl-piperazin-1-yl)-dithieno-[3.4-b:4'.3'-e]azepin]	0.14 mg/kg	0,33	7.4 mg/kg	0,64	5.1 mg/kg	7,25	2.8 mg/kg	1,1
CN1CCN(C2=Nc3cc(Cl)ccc3Nc3ccccc32)CC1 [Clozapin, reference compound]		1,0	4.7 mg/kg	1,0	37 mg/kg	1,0	3.1 mg/kg	1,0
CN1CCN(C2=Nc3ccccc3Cc3ccccc32)CC1 [Perlapin, reference compound]	0.11 mg/kg	0,42	2.1 mg/kg	2,24	31 mg/kg	1,2	14 mg/kg	0,22
